Data from US12616698B2, “Methods for reducing liver fat and for treating fatty liver disorders” (Corcept Therapeutics Incorporated, priority 2021, dated 2026).

Columns and labels:
[1] = Phase 2a study: body weight and plasma lipids; assay type: in vivo, human; settings: patients who responded to miricorilant treatment (FIG. 4)
Experimental: Measures of the effectiveness of miricorilant versus placebo in reducing liver fat were assessed by magnetic resonance imaging (MRI). The change from baseline MRI measurements relative to MRI measurements taken following a course of daily miricorilant or placebo administration were assessed by magnetic resonance imaging-proton density fat fraction (MRI-PDFF). Additionally, effects of miricorilant may be assessed by measuring one or more of the following, either by comparing change from baseline after one or more days of miricorilant administration, or by comparing measurements in patients administered miricorilant versus patients administered placebo: change in liver fat assessed by MRI-PDFF; change in AST, ALT, and gamma-glutamyl transferase (GGT); change in propeptide of type III collagen (pro-C3); change in enhanced liver fibrosis (ELF) score and its components (hyaluronic acid, tissue inhibitor of metalloproteinases-1 [TIMP-1], type III procollagen [PIIINP]); change in ACTH, serum cortisol, and serum aldosterone (pharmacodynamic assessments); change in Homeostatic Model Assessment of Insulin Resistance (HOMA-IR); change in absolute body weight; and other measurements. […] For patients with diabetes, change in HbA1c and change in fasting blood glucose may be measured to assess the effects of miricorilant. […]
Liver enzyme levels were measured in the patients.

[2] = test system: patients with presumed NASH; experiment: Example 6 study: transaminases and safety laboratory values; assay type: in vivo, human
Experimental: This study was a double-blind, multi-center, placebo-controlled, randomized 3-arm phase 2a study (NCT03823703) conducted to assess the safety and efficacy of miricorilant in reducing liver fat content (LFC) in patients with presumed NASH. Adult patients (18-75 years) with presumed NASH were randomized 1:1:1 to miricorilant 600 mg daily, miricorilant 900 mg daily, or placebo for 12 weeks. […] Abbreviations used in this Example and in the Figures include: ALP, alkaline phosphatase; ALT, alanine aminotransferase; AST, aspartate aminotransferase; ELF, enhanced liver fibrosis; LFC, liver fat content; NASH, non-alcoholic steatohepatitis; ULN, upper limit of normal; AUC, area under the concentration-time curve; Cmax, maximum concentration; EOT, end of treatment; GGT, gamma-glutamyltransferase; INR, international normalized ratio; MRI-PDFF, magnetic resonance imaging-proton density fat fraction; pt, patient; SD, standard deviation; ULN, upper limit of normal; Wk, week.
Key inclusion criteria included that the patients be adults between 18-75 years old; be presumed to suffer from NASH with fibrosis; have LFC as measured by MRI-PDFF≥8%; have levels of AST<5×ULN and ALT<5×ULN; and have eGFR>60 mL/min/1.73 m^2. Primary endpoints included relative change in LFC from baseline by MRI-PDFF. Secondary endpoints included change from baseline in AST, ALT, GGT, and change from baseline in ELF score.
Patients were divided into different cohorts and received different regimens of miricorilant. The cohorts included patients receiving 30 mg mircorilant once per day; patients receiving 50 mg mircorilant once per day; patients receiving 100 mg mircorilant once per day; patients receiving 150 mg mircorilant once per day; patients receiving 100 mg mircorilant on Mondays, Wednesdays, and Fridays; patients receiving 100 mg mircorilant on Mondays and Fridays; and patients receiving 200 mg mircorilant once per week. Patients receiving 100 mg mircorilant on Mondays and Fridays were termed “Cohort 6”.
FIG. 13 provides a plot of MRI-PDFF (top line beginning at week 0) and liver enzyme alanine aminotransferase (ALT; bottom line beginning at week 0) for a patient who received miricorilant treatment that included a cessation of miricorilant treatment from week 7 to week 10. […] GGT was elevated at baseline (peak 88 U/L at Wk 10); at other weeks it was below baseline. Eosinophils (%) baseline 7.3, decreased to 2.2 at Wk 2 and increased Wk 3 (peak 4.3), decreased Wk 8 (2.0) and stable until EOT.

## O=c1[nH]c(=O)c(Cc2cccc(C(F)(F)F)c2)c([C@H]2CC[C@H](c3ccccc3)CC2)[nH]1 [miricorilant, (E)-6-(4-Phenylcyclohexyl)-5-(3-trifluoromethylbenzyl)-1H-pyrimidine-2,4-dione]
[1]
  Changes in body weight: No significant changes
[2]; 100 mg twice weekly, over 12 weeks
  Hepatic transaminase levels: without an associated rise
[2]; including 100 mg twice weekly
  Safety and tolerability: safe, well tolerated
[2]; one patient (FIG. 13), Wk 2, baseline 7.3
  Eosinophils (%): 2.2%
[2]; one patient (FIG. 13), Wk 3
  Eosinophils (%) peak: 4.3%
[2]; one patient (FIG. 13), Wk 8, stable until EOT
  Eosinophils (%): 2.0%
[2]; one patient (FIG. 13), Wk 10, elevated at baseline
  GGT peak: 88 U/L
[2]; one patient, treatment ceased from week 7 to week 10 (FIG. 13)
  Total bilirubin, direct bilirubin, ALP, INR: within normal limits
[2]; responders receiving intermittent miricorilant, all cohorts
  Rise in ALT>3×ULN, intermittent compared to daily dosing: less likely to have a rise in ALT>3×ULN
[2]; treatment non-responders (FIG. 10)
  Transaminase levels: did not experience a rise
